Measured values as given in patent US10330673B2, “Fluorescent chemical sensor for biological amines” (The Curators of the University of Missouri, priority 2013, dated 2019).

Experiments:
[1] = Fluorescence titration of sensor with glutamate; assay type: binding; conditions: for Ka: pH 5.0, 37° C.
Protocol: (§1) Fluorescence spectra were recorded on a Shimadzu RF-5301 PC spectrofluorometer at 37° C. A 1 mg/mL stock solution of I-2 in DMSO was prepared. A stock solution of I-2 in buffer (1×10^−5 M, 25 mM HEPES, 50 mM Na2S2O3, pH=5.0) was prepared. Norepinephrine, dopamine, epinephrine, and glutamate stock solutions were prepared by separately dissolving the analytes at the concentration to be used in the titration with the buffered stock solution of I-2 (thus avoiding dilution of I-2 during the experiment). I-2 was titrated with aliquots of analyte solution. The sensor was excited at 488 nm with slit widths of 5 nm.
(§2) Fluorescence spectra were recorded on a Shimadzu RF-5301 PC spectrofluorometer at 37° C. A separate 1 mg/mL stock solution of each coumarin-3-aldehyde derivative in DMSO was prepared. An aqueous stock solution of each derivative (10 μM) in buffer (25 mM HEPES, 50 mM Na2S2O3, pH=5.0) was prepared. Norepinephrine, dopamine, glutamate, and epinephrine stock solutions were prepared by separately dissolving the solid analytes at the concentration to be used in the titration with the buffered stock solutions described above and thus, avoiding dilution of the sensor during the experiment. The benzene-based NS521 derivatives were excited at 488 nm. The thiophene-based derivatives were excited at 515 nm.

[2] = Fluorescence quantum yield of sensor bound to glutamate; assay type: physicochemical
Protocol: Steady-state fluorescence spectroscopic studies were performed using a Horiba Scientific Fluorolog-3 Model FL3C-111 spectrofluorometer and data was collected and analyzed using HJY FluorEssence™ 3.5.1.20 software package. UV-visible spectra were obtained on a Varian Cary 1E UV-visible spectrophotometer. A stock solution of each benzene- or thiophene-based coumarin-3-aldehyde derivative (1 μM) in buffer (25 mM HEPES, 50 mM Na2S2O3, pH=5.0) was prepared. Each solution contained 1% (v/v) DMSO as a cosolvent except as noted. The slit width was 2 nm for both excitation and emission. The bound benzene- and thiophene-coumarin-3-aldehyde derivatives contained 500 mM glutamate (pH=5.0).
To determine the relative quantum yield of fluorescence (Φfl) for the benzene-based derivatives, a 1.0 μM solution of fluorescein (absolute Φfl=0.85) in 0.1 N NaOH (pH 13) was used as a fluorescence standard. The unbound derivatives were excited at 473 nm and the bound derivatives were excited at 488 nm. To determine the relative quantum yield of fluorescence (Φfl) for the thiophene-based derivatives, a 1.0 μM solution of rhodamine B (absolute Φfl=0.31) in water (pH 7) was used as a fluorescence standard. The unbound derivatives were excited at 473 nm and the bound derivatives were excited at 515 nm. Quantum yields were obtained in triplicate and calculated as per the following equation: […]

[3] = Fluorescence titration of sensor with epinephrine; assay type: binding
Protocol: as §1, §2

[4] = Fluorescence titration of sensor with norepinephrine; assay type: binding; conditions: for Ka: pH 5.0, 37° C.
Protocol: as §1, §2

[5] = Fluorescence titration of sensor with lysine; assay type: binding; conditions: amine guest lysine
[6] = Binding affinity toward free primary amines
[7] = Table 2, analyte glutamate, benzene-based compounds I, excited at 488 nm
[8] = Table 2, analyte norepinephrine, benzene-based compounds I, excited at 488 nm

Quantum Yield (Φ) ([2]; bound to glutamate): 0.0095
difference in quantum yields, bound to glutamate vs bound to norepinephrine ([2]; in words): three-fold
binding constants of catecholamines (norepinephrine, dopamine) relative to other alkyl amines such as glycine ([4]; higher binding constants): 10 fold
binding affinities toward free primary amines [6]: ~10 M⁻¹
SMILES: CCN(CC)c1ccc2c(-c3ccc(OC)cc3)c(C=O)c(=O)oc2c1 [Compound I-2, 7-diethylamino-3-formyl-4-(4′-methoxyphenyl)coumarin]
F.E. [1, 7]: 7.82
Ka [1, 7]: 9.63 M⁻¹
Ka ([1]; amine guest glutamate, fluorescence spectroscopy, λex = 488 nm, λem = 521 nm): 10 M⁻¹
Isat/Io (λex = 488 nm) ([1]; amine guest glutamate, intensity at saturation from fit to binding isotherm): 7.8
Ka ([3]; amine guest epinephrine, fluorescence spectroscopy, λex = 488 nm, λem = 521 nm, pH 5.0, 37° C.): 0 M⁻¹
interaction with secondary amines such as epinephrine ([3]; in words): does not interact
F.E. [4, 8]: 5.40
Ka [4, 8]: 77.76 M⁻¹
Ka ([4]; amine guest norepinephrine, fluorescence spectroscopy, λex = 488 nm, λem = 521 nm): 75 M⁻¹
Isat/Io (λex = 488 nm) ([4]; amine guest norepinephrine, intensity at saturation from fit to binding isotherm): 5.3
Ka ([5]; fluorescence spectroscopy, λex = 488 nm, λem = 521 nm): 11 M⁻¹
Isat/Io (λex = 488 nm) ([5]; intensity at saturation from fit to binding isotherm): 15.1
